From patent publication US6869960B2, “N-substituted spiropiperidine compounds as ligands for ORL-1 receptor” (Pfizer Inc., priority 2002, dated 2005)

Biological target: T1, human ORL1 receptor (Homo sapiens, UniProt P41146)
T1 construct: expressed in transfected cells; host or cells: HEK-293 cell membranes
Test: ORL1 receptor functional assay ([35S]GTPγS binding, nociceptin stimulated)
Format: biochemical
Conditions: at 10 nM nociceptin stimulation; human ORL1 receptor transfected HEK-293 cell membranes
Method: IC50(ORL1-receptors)nM/IC50(mu-receptors)nM<1.0 ORL1 Receptor Functional Assay • The human ORL1 receptor transfected HEK-293 cell membranes are incubated with 400 pM [^35S]GTPγS, 10 or 50 nM nociceptin and various concentrations of test compounds in assay buffer (20 mM HEPES, 100 mM NaCl, 5 mM MgCl2, 1 mM EDTA, […], 1 mM DTT, pH7.4) containing 1.5 mg of wheat germ agglutinin-coated SPA beads for 60 or 90 min at 25° C. in a final volume of 200 μl. Basal binding is assessed in the absence of nociceptin and non-specific binding is defined by the addition of unlabelled […]. Membrane-bound radioactivity is detected by a Liquid Scintillation Counter. […] Analgesic Tests Tail Flick Test in Mice • The latency time to withdrawal f the tail from radiant heat stimulation is recorded before and after administration of test compounds. Cut-off time is set to 8 sec. Acetic Acid Writhing Test in Mice • Acetic acid saline solution of 0.7% (v/v) is injected intraperitoneally (0.16 ml/10 g body weight) to mice. Test compounds are administered before acetic acid injection. As soon as acetic acid injection, animals are placed in a 1 liter beaker and writhing is recorded for 15 min. Formalin Licking Test in Mice • Formalin-induced hind paw licking is initiated by a 20 micro liters subcutaneous injection of a 2% formaline solution into a hind paw of mice. […]

T1 sequence (P41146 whole entry): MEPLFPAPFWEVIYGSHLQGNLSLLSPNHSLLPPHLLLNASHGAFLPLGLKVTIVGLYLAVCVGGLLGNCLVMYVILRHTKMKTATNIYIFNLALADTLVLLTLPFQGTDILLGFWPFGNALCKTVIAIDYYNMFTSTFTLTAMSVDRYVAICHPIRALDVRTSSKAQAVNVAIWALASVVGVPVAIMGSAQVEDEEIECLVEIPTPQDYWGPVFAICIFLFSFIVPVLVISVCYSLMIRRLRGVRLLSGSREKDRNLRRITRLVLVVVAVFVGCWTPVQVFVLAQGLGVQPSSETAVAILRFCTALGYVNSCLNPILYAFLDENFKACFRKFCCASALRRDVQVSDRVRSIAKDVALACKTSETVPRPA

Structure (SMILES)	IC50
CN1CC2(CCN(CC3Cc4cccc(O)c4NC3=O)CC2)c2ccccc21 (centres unmarked) [Example 31, 8-Hydroxy-3-[(1-methyl-1,2-dihydro-1′H-spiro[indole-3,4′-piperidin]-1′-yl)methyl]-3,4-dihydroquinolin-2(1H)-one]	13 nM
O=C1COc2cccc3c2N1CC(CN1CCC2(CCc4ccccc42)CC1)C3 (centres unmarked) [Example 20, 6-(2,3-Dihydro-1′H-spiro[indene-1,4′piperidin]-1′-ylmethyl)-6,7-dihydro-5H-[1,4]oxazino[2,3,4-ij]quinolin-3(2H)-one]	13 nM
